Measurements taken from US20230143612A1 (Arbutus Biopharma Corporation, priority 2020, published 2023).

biological target: PD-L1 His protein / PD-1 Fc protein (Homo sapiens, UniProt Q9NZQ7); assay: HTRF Assay (PD-1/PD-L1 interaction); format: binding; conditions: PD-L1 His 6 nM, PD-1 Fc 6 nM
In short: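 HTRF: PD-L1 His (6 nM final), compound (3-fold dilutions, 20 μM to 0.001 μM final) and PD-1 Fc (6 nM final) preincubated 15 min at room temperature. Anti-human IgG-XL665 and anti-6HIS Tb cryptate (mixed at 6.7 nM and 0.35 nM) then added for 1 h at room temperature before reading.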

Chain of PD-L1 His protein / PD-1 Fc protein (Q9NZQ7 19-238 limits assumed): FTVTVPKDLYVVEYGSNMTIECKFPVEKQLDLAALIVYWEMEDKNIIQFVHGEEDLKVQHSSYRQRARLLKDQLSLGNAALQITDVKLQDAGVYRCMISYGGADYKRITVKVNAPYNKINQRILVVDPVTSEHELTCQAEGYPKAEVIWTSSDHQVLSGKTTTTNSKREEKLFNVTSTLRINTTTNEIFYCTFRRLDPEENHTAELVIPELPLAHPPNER

**Q.** `COc1nc(-c2cccc(-c3cccc(-c4ccn5c(=O)c(CN6CCC6C(N)=O)cnc5c4)c3Cl)c2Cl)ccc1CNC[C@@H]1CCC(=O)N1` (mixture of isomers) [Example 259, 1-[[8-[2-Chloro-3-[2-chloro-3-[6-methoxy-5-[[[(2S)-5-oxopyrrolidin-2-yl]methylamino]methyl]-2-pyridyl]phenyl]phenyl]-4-oxo-pyrido[1,2-a]pyrimidin-3-yl]methyl]azetidine-2-carboxamide] was tested. Which IC50 did it give?
**A.** Its IC50 is 2.3 nM.

**Q.** For `COc1nc(-c2cccc(-c3cccc(-c4ccn5c(=O)c(CNC[C@H](C)O)c(C)nc5c4)c3Cl)c2Cl)ccc1CNC[C@@H]1CCC(=O)N1` [Example 193, 8-(2,2′-Dichloro-3′-(6-methoxy-5-(((((S)-5-oxopyrrolidin-2-yl)methyl)amino)methyl)pyridin-2-yl)-[1,1′-biphenyl]-3-yl)-3-((((S)-2-hydroxypropyl)amino)methyl)-2-methyl-4H-pyrido[1,2-a]pyrimidin-4-one], which IC50 is on record?
**A.** Its IC50 is 0.1 nM.

**Q.** For `COc1nc(-c2cccc(-c3cccc(-c4ccn5c(=O)c(CN6CCC[C@@]6(C)C(=O)O)cnc5c4)c3Cl)c2Cl)ccc1CNCCO` [Example 168, (S)-1-((8-(2,2′-Dichloro-3′-(5-(((2-hydroxyethyl)amino)methyl)-6-methoxypyridin-2-yl)-[1,1′-biphenyl]-3-yl)-4-oxo-4H-pyrido[1,2-a]pyrimidin-3-yl)methyl)-2-methylpyrrolidine-2-carboxylic acid], which IC50 is on record?
**A.** The IC50 was 0.2 nM.

**Q.** `COC(=O)C[C@H](O)CNCc1cnc2cc(-c3cccc(-c4cccc(-c5cc(F)c(CNC[C@@H]6CCC(=O)N6)c(OC)n5)c4Cl)c3Cl)ccn2c1=O` [Example 271, Methyl (3S)-4-[[8-[2-chloro-3-[2-chloro-3-[4-fluoro-6-methoxy-5-[[[(2S)-5-oxopyrrolidin-2-yl]methylamino]methyl]-2-pyridyl]phenyl]phenyl]-4-oxo-pyrido[1,2-a]pyrimidin-3-yl]methylamino]-3-hydroxy-butanoate] was tested. Which IC50 did it give?
**A.** The IC50 was 0.1 nM.

**Q.** With `COc1nc(-c2cccc(-c3cccc(-c4ncc5c(n4)CCN(C[C@@H]4CCC(=O)N4)C5)c3Cl)c2Cl)ccc1CNC[C@@H]1CCC(=O)N1` [Example 443, (S)-5-((((6-(2,2′-Dichloro-3′-(6-(((S)-5-oxopyrrolidin-2-yl)methyl)-5,6,7,8-tetrahydropyrido[4,3-d]pyrimidin-2-yl)-[1,1′-biphenyl]-3-yl)-2-methoxypyridin-3-yl)methyl)amino)methyl)pyrrolidin-2-one] as the compound, how does the IC50 read?
**A.** The IC50 was 0.1 nM.

**Q.** With `COc1nc(-c2cccc(-c3cccc(-c4ccn5c(=O)c(CNC6CCS(=O)(=O)CC6)cnc5c4)c3Cl)c2Cl)ccc1CNC[C@@H]1CCC(=O)N1` [Example 224, (S)-8-(2,2′-dichloro-3′-(6-methoxy-5-((((5-oxopyrrolidin-2-yl)-methyl)amino)-methyl)-pyridin-2-yl)-[1,1′-biphenyl]-3-yl)-3-(((1,1-dioxidotetrahydro-2H-thiopyran-4-yl)-amino)methyl)-4H-pyrido[1,2-a]-pyrimidin-4-one] as the compound, how does the IC50 read?
**A.** The IC50 was 2.8 nM.

**Q.** Which IC50 does the source give for `CN1CCNCc2ccc(-c3cccc(-c4cccc(-c5ccn6c(=O)c(CNC[C@@H]7CCC(=O)N7)cnc6c5)c4Cl)c3Cl)cc21` [Example 410, (S)-8-(2,2′-Dichloro-3′-(1-methyl-2,3,4,5-tetrahydro-1H-benzo[e][1,4]diazepin-8-yl)-[1,1′-biphenyl]-3-yl)-3-((((5-oxopyrrolidin-2-yl)methyl)amino)methyl)-4H-pyrido[1,2-a]pyrimidin-4-one] here?
**A.** The IC50 was 120 nM.

**Q.** `COc1cc(Cl)c(CNC[C@H]2CCC(=O)N2)c(-c2cccc(-c3cccc(-c4ccn5c(=O)c(CNC[C@@H]6CCC(=O)N6)cnc5c4)c3Cl)c2Cl)n1` [Example 337, 8-[2-chloro-3-[2-chloro-3-[4-chloro-6-methoxy-3-[[[(2R)-5-oxopyrrolidin-2-yl]methylamino]methyl]-2-pyridyl]phenyl]phenyl]-3-[[[(2S)-5-oxopyrrolidin-2-yl]methylamino]methyl]pyrido[1,2-a]pyrimidin-4-one] was tested. Which IC50 did it give?
**A.** The IC50 was 47 nM.

**Q.** `COc1nc(-c2cccc(-c3cccc(-c4ccn5cc(CNC[C@@H]6CCC(=O)N6)nc5c4)c3Cl)c2Cl)ccc1CNC[C@@H]1CCC(=O)N1` [Example 357, (5S)-5-[[[6-[2-Chloro-3-[2-chloro-3-[2-[[[(2S)-5-oxopyrrolidin-2-yl]methylamino]methyl]imidazo[1,2-a]pyridin-7-yl]phenyl]phenyl]-2-methoxy-3-pyridyl]methylamino]methyl]pyrrolidin-2-one] was tested. Which IC50 did it give?
**A.** The IC50 was 50 nM.

**Q.** Which IC50 does the source give for `COc1cc(-c2cccc(-c3cccc(-c4ccn5c(=O)c(CN[C@H]6C[C@](C)(O)C6)cnc5c4)c3Cl)c2Cl)cnc1CN[C@H]1C[C@](C)(O)C1` [Example 361, 8-(2,2′-Dichloro-3′-(6-((((1r,3r)-3-hydroxy-3-methylcyclobutyl)amino)methyl)-5-methoxypyridin-3-yl)-[1,1′-biphenyl]-3-yl)-3-((((1r,3r)-3-hydroxy-3-methylcyclobutyl)amino)methyl)-4H-pyrido[1,2-a]pyrimidin-4-one] here?
**A.** Its IC50 is 39 nM.

**Q.** Which IC50 does the source give for `COc1nc(-c2cccc(-c3cccc(-c4cnc5sc(N6CCN(CCO)CC6)nn45)c3Cl)c2Cl)ccc1CNC[C@@H]1CCC(=O)N1` [Example 241, (S)-5-((((6-(2,2′-Dichloro-3′-(2-(4-(2-hydroxyethyl)piperazin-1-yl)imidazo[2,1-b][1,3,4]thiadiazol-5-yl)-[1,1′-biphenyl]-3-yl)-2-methoxypyridin-3-yl)methyl)amino)methyl)pyrrolidin-2-one] here?
**A.** The IC50 was 900 nM.

**Q.** How did the IC50 turn out when `O=C1CC[C@@H](CNCc2cnc3cc(-c4cccc(-c5cccc(-c6ccn7c(=O)c(CNC[C@@H]8CCC(=O)N8)cnc7c6)c5Cl)c4Cl)ccn3c2=O)N1` [Example 48, (S)-8,8′-(2,2′-Dichloro-[1,1′-biphenyl]-3,3′-diyl)bis(3-(((((S)-5-oxopyrrolidin-2-yl)methyl)amino)methyl)-4H-pyrido[1,2-a]pyrimidin-4-one)] was run?
**A.** The IC50 was 7 nM.

**Q.** How did the IC50 turn out when `COc1nc(-c2cccc(-c3cccc(-c4cnc5c(Cl)c(CNC[C@@H]6CCC(=O)N6)sc5c4)c3Cl)c2Cl)ccc1CNC[C@@H]1CCC(=O)N1` [Example 123, (S)-5-((((3-Chloro-6-(2,2′-dichloro-3′-(6-methoxy-5-(((((S)-5-oxopyrrolidin-2-yl)methyl)amino)methyl)pyridin-2-yl)-[1,1′-biphenyl]-3-yl)thieno[3,2-b]pyridin-2-yl)methyl)amino)methyl)pyrrolidin-2-one] was run?
**A.** Its IC50 is 0.2 nM.

**Q.** How did the IC50 turn out when `COc1nc(-c2cccc(-c3cccc(-c4ccn5c(=O)c(C6=NCC(O)CN6)cnc5c4)c3Cl)c2Cl)ccc1CNC[C@@H]1CCC(=O)N1` (stereo partly drawn) [Example 161, 8-(2,2′-Dichloro-3′-(6-methoxy-5-(((((S)-5-oxopyrrolidin-2-yl)methyl)amino)methyl)pyridin-2-yl)-[1,1′-biphenyl]-3-yl)-3-(5-hydroxy-1,4,5,6-tetrahydropyrimidin-2-yl)-4H-pyrido[1,2-a]pyrimidin-4-one] was run?
**A.** The IC50 was 0.1 nM.

**Q.** Which IC50 does the source give for `COc1cc(-c2cccc(-c3cccc(-c4ccc(CNC[C@@H]5CCC(=O)N5)c(OC)n4)c3Cl)c2Cl)cc2c1CN(C[C@@H]1CCC(=O)N1)CC2` [Example 155, (S)-5-((6-(2,2′-Dichloro-3′-(6-methoxy-5-(((((S)-5-oxopyrrolidin-2-yl)methyl)amino)-methyl)pyridin-2-yl)-[1,1′-biphenyl]-3-yl)-8-methoxy-3,4-dihydroisoquinolin-2(1H)-yl)methyl)pyrrolidin-2-one] here?
**A.** The IC50 was 0.4 nM.

**Q.** How did the IC50 turn out when `COc1cc(-c2cccc(-c3cccc(-c4ccn5c(=O)c(CNC[C@@H]6CCC(=O)N6)cnc5c4)c3C)c2Cl)ncc1CNC[C@@H]1CCC(=O)N1` [Example 77, 8-[3-[2-Chloro-3-[4-methoxy-5-[[[(2S)-5-oxopyrrolidin-2-yl]methylamino]methyl]-2-pyridyl]phenyl]-2-methyl-phenyl]-3-[[[(2S)-5-oxopyrrolidin-2-yl]methylamino]methyl]pyrido[1,2-a]pyrimidin-4-one] was run?
**A.** Its IC50 is 6.3 nM.

**Q.** With `COC(=O)C1CN(Cc2cnc3cc(-c4cccc(-c5cccc(-c6ccc(CNC[C@@H]7CCC(=O)N7)c(OC)n6)c5Cl)c4Cl)cc(C)n3c2=O)C1` [Example 291, (S)-Methyl 1-((8-(2,2′-dichloro-3′-(6-methoxy-5-((((5-oxopyrrolidin-2-yl)methyl)amino)methyl)pyridin-2-yl)-[1,1′-biphenyl]-3-yl)-6-methyl-4-oxo-4H-pyrido[1,2-a]pyrimidin-3-yl)methyl)azetidine-3-carboxylate] as the compound, how does the IC50 read?
**A.** Its IC50 is 0.1 nM.

**Q.** Which IC50 does the source give for `COc1nc(-c2cccc(-c3cccc(-c4ccn5c(=O)c(CN(C)C[C@@H]6CCC(=O)N6)cnc5c4)c3C)c2Cl)ccc1CN1CC(O)C1` [Example 55, (S)-8-(2′-Chloro-3′-(5-((3-hydroxyazetidin-1-yl)methyl)-6-methoxypyridin-2-yl)-2-methyl-[1,1′-biphenyl]-3-yl)-3-((methyl((5-oxopyrrolidin-2-yl)methyl)amino)methyl)-4H-pyrido[1,2-a]pyrimidin-4-one] here?
**A.** Its IC50 is 43 nM.

**Q.** Which IC50 does the source give for `COc1nc(-c2cccc(-c3cccc(-c4ccn5c(=O)c(CNC[C@@H]6CCC(=O)N6)cnc5c4)c3Cl)c2Cl)ccc1CNCC(=O)O` [Example 125, (S)-((6-(2,2′-Dichloro-3′-(4-oxo-3-((((5-oxopyrrolidin-2-yl)methyl)amino)methyl)-4H-pyrido[1,2-a]pyrimidin-8-yl)-[1,1′-biphenyl]-3-yl)-2-methoxypyridin-3-yl)methyl)glycine] here?
**A.** Its IC50 is 0.7 nM.

**Q.** For `Cc1c(COc2cc(OCc3cncc(C#N)c3)c(CNCCO)cc2Cl)cccc1-c1cccc(-c2cnc3cc(CNCCO)ccn3c2=O)c1C` [Example 17, 5-((4-Chloro-2-(((2-hydroxyethyl)amino)methyl)-5-((3′-(8-(((2-hydroxyethyl)amino)methyl)-4-oxo-4H-pyrido[1,2-a]pyrimidin-3-yl)-2,2′-dimethyl-[1,1′-biphenyl]-3-yl)methoxy)phenoxy)methyl)nicotinonitrile], which IC50 is on record?
**A.** The IC50 was 2 nM.
